Consider 14 compounds from US20220389013A1, “PYRIDOPYRIMIDINONE COMPOUNDS AND APPLICATIONS THEREOF” (BeBetter Med Inc., priority 2020, published 2022).

A value given as a limit tells only on which side of the number the result lay.

One series relates to H358 (KRAS G12C). Put plainly: Tumor cell proliferation inhibition assay (CellTiter-Glo), H358. It counts as cell-based, Human. The following applies: 10% fetal bovine serum. The protocol: (§1) The H358, H23 or MIA-Paca2 cells were digested, centrifuged and resuspended, and the cell density was measured with a Scepter automatic cell counter. Cells were diluted to a solution containing 44,000 cells per milliliter, then added to a 96-well culture plate at 90 μL per well. The 96-well plate was placed in a 5% CO2 incubator at 37° C., and after the cells were cultured for 24 hours, different concentrations of the compounds to be tested were added. Cells were incubated with compounds in the presence of 10% fetal bovine serum for 72 hours. The inhibition of cell growth was assessed by measuring ATP levels by using the CellTiter-Glo Luminescent Cell Viability Assay Kit (details in manufacturer's instructions). In brief, 30 μL of CellTiter-Glo reagent was added to each well and the plate was shaken for 10 minutes to induce cell lysis, then the fluorescent signal was detected and recorded with a Fluoroskan Ascent FL (Thermo). Maximum signal values were obtained from cells treated with DMSO for 72 hours. Minimum signal values were obtained with medium only (zero cell number). Inhibition rate %=(maximum signal value-compound signal value)/(maximum signal value-minimum signal value)×100%. Data were processed by using Graphpad prism5 software. IC50 values were calculated using a sigmoidal dose-response curve.

In another series the test system is MIA-Paca2 (KRAS G12C). The experiment in a line: Tumor cell proliferation inhibition assay (CellTiter-Glo), MIA-Paca2. Particulars: 10% fetal bovine serum. It counts as cell-based, Human. The procedure:
as §1
(In ATP-based viability assays light output follows the ATP content of the culture.)

Series [1] can be described thus: Pharmacokinetic (PK) experiment in rats by gavage. It counts as in vivo. The following applies: rat, plasma, po, male SD rats, 20 mg/kg; for AUC(0-t): read-out: AUC0-24. The procedure:
Male SD rats, weighing 180-250 g, were fasted overnight before the test and stomach administrated with the test compound at 20 mg/kg. 15 minutes, 30 minutes, and 1, 2, 4, 6, 8, and 24 hours after administration, blood was taken from the end of the tail of the fracture, about 0.3 mL per time point, then placed in a centrifuge tube containing K2-EDTA, and centrifuged (2000 g, 10 min, at 4° C.). Plasma was collected and stored in an ultra-low temperature freezer at −80° C. 50 μL of plasma samples were vortexed with 135 μL of acetonitrile (containing 1 μg/mL internal standard) for protein precipitation and centrifuged, and the supernatant was collected for LC-MS/MS analysis.
After the rats oral administrated with the Pyridopyrimidinone compounds provided by the present disclosure, the absorption is good, and the blood exposure is relatively high. […] Cmax refers to the maximum plasma concentration, T1/2 is the half-life, AUC0-24 refers to the area under the 0-24 hour time-concentration curve, and AUC0-inf refers to the area under the 0-Inf time-concentration curve.

Take `C=CC(=O)N1CCN(c2nc(=O)n(-c3ccccc3C(C)C)c3nc(-c4c(F)ccc5ccoc45)c(F)cc23)[C@@H](C)C1` [Compound 120, 4-((S)-4-acryloyl-2-methylpiperazin-1-yl)-6-fluoro-7-(6-fluorobenzofuran-7-yl)-1-(2-isopropylphenyl)pyrido[2,3-d]pyrimidin-2(1H)-one]: the IC50 (as a rule, the midpoint of a concentration-inhibition curve) was 11 nM with H358 (KRAS G12C) (Homo sapiens, NCI-H358, 72 h) and 100 to 500 nM in the series with MIA-Paca2 (KRAS G12C) (Homo sapiens, MIA PaCa-2, 72 h).
For `C=CC(=O)N1CCN(c2nc(=O)n(-c3c(C)ccnc3C(C)C)c3nc(-c4c(F)ccc5c4OCCO5)c(Cl)cc23)[C@@H](C)C1` [Compound 98, 4-((S)-4-acryloyl-2-methylpiperazin-1-yl)-6-chloro-7-(6-fluoro-2,3-dihydrobenzo[b][1,4]dioxin-5-yl)-1-(2-isopropyl-4-methylpyridin-3-yl)pyrido[2,3-d]pyrimidin-2(1H)-one] the same measures were less than 10 nM and 10 to 50 nM.
For `C=CC(=O)N1CCN(c2nc(=O)n(-c3c(C)ccnc3C(C)C)c3nc(-c4cccc5cc[nH]c45)c(F)cc23)[C@@H](C)C1` [Compound 82, (S)-4-(4-acryloyl-2-methylpiperazin-1-yl)-6-fluoro-7-(1H-indol-7-yl)-1-(2-isopropyl-4-methylpyridin-3-yl)pyrido[2,3-d]pyrimidin-2(1H)-one] the same measures were 1 nM and greater than 500 nM.
`C=CC(=O)N1CCN(c2nc(=O)n(-c3c(C)ccnc3C(C)C)c3nc(-c4c(F)ccc5ccoc45)c(F)cc23)C[C@@H]1CC#N` (atropisomer, axis not shown; (M)) [Compound 100-1, 2-((2S)-1-acryloyl-4-(6-fluoro-7-(6-fluorobenzofuran-7-yl)-1(M)-(2-isopropyl-4-methylpyridin-3-yl)-2-oxo-1,2-dihydropyrido[2,3-d]pyrimidin-4-yl)piperazin-2-yl)acetonitrile]: the IC50 in the series with H358 (KRAS G12C) (Homo sapiens, NCI-H358, 72 h) was 100 to 500 nM.
Turning to `C=CC(=O)N1CCN(c2nc(=O)n(-c3c(C)ccnc3C(C)C)c3nc(-c4cccc5ccoc45)c(F)cc23)[C@@H](C)C1` [Compound 107, (S)-4-(4-acryloyl-2-methylpiperazin-1-yl)-7-(benzofuran-7-yl)-6-fluoro-1-(2-isopropyl-4-methylpyridin-3-yl)pyrido[2,3-d]pyrimidin-2(1H)-one], the IC50 in the series on H358 (KRAS G12C) (Homo sapiens, NCI-H358, 72 h) was 100 to 500 nM; in the series on MIA-Paca2 (KRAS G12C) (Homo sapiens, MIA PaCa-2, 72 h), greater than 500 nM.
`C=CC(=O)N1CCN(c2nc(=O)n(-c3c(C)ccnc3C(C)C)c3nc(-c4c(Cl)ccc5ccoc45)c(F)cc23)[C@@H](C)C1` [Compound 112, 4-((S)-4-acryloyl-2-methylpiperazin-1-yl)-7-(6-chlorobenzofuran-7-yl)-6-fluoro-1-(2-isopropyl-4-methylpyridin-3-yl)pyrido[2,3-d]pyrimidin-2(1H)-one]: the IC50 with H358 (KRAS G12C) (Homo sapiens, NCI-H358, 72 h) is 10 to 50 nM; with MIA-Paca2 (KRAS G12C) (Homo sapiens, MIA PaCa-2, 72 h), 50 to 100 nM.
Turning to `C=CC(=O)N1C[C@H](C)N(c2nc(=O)n(-c3c(C)ccnc3C(C)C)c3nc(-c4c(F)ccc5ccoc45)c(F)cc23)C[C@H]1C` (atropisomer, axis not shown; (P)) [Compound 89-2, 4-((2S,5R)-4-acryloyl-2,5-dimethylpiperazin-1-yl)-6-fluoro-7-(6-fluorobenzofuran-7-yl)-1(P)-(2-isopropyl-4-methylpyridin-3-yl)pyrido[2,3-d]pyrimidin-2(1H)-one], the concentration for half-maximal inhibition (IC50) with H358 (KRAS G12C) (72 hours) is 11 nM; in the series on MIA-Paca2 (KRAS G12C) (72 hours) it was greater than 500 nM.
The compound `C=CC(=O)N1CCN(c2nc(=O)n(-c3c(C)ccnc3C(C)C)c3nc(-c4c(F)cc(F)c5ccoc45)c(Cl)cc23)[C@@H](C)C1` [Compound 102, 4-((S)-4-acryloyl-2-methylpiperazin-1-yl)-6-chloro-7-(4,6-difluorobenzofuran-7-yl)-1-(2-isopropyl-4-methylpyridin-3-yl)pyrido[2,3-d]pyrimidin-2(1H)-one] gave an IC50 in the series with H358 (KRAS G12C) (Homo sapiens, NCI-H358, 72 h) of less than 10 nM. The concentration for half-maximal inhibition (IC50) in the series with MIA-Paca2 (KRAS G12C) (Homo sapiens, MIA PaCa-2, 72 h) was 10 to 50 nM. Also, in series [1], the area under the curve AUC(0-inf) (as a rule, the area under the concentration-time curve extrapolated to infinity) was 14200 ng·h/mL; the concentration peaked (Cmax) at 3720 ng/mL; the Tmax (in general, the time from dosing to the highest level) amounted to 60 min; the half-life (usually the time in which the quantity being followed falls by half) is 171 min. In addition, in series [1], the AUC(0-t) came to 14200 ng·h/mL.
For `C=CC(=O)N1CCN(c2nc(=O)n(-c3c(C)cccc3C(C)C)c3nc(-c4c(F)ccc5ccoc45)c(F)cc23)[C@@H](C)C1` [Compound 106, 4-((S)-4-acryloyl-2-methylpiperazin-1-yl)-6-fluoro-7-(6-fluorobenzofuran-7-yl)-1-(2-isopropyl-6-methylphenyl)pyrido[2,3-d]pyrimidin-2(1H)-one], the concentration for half-maximal inhibition (IC50) in the series with H358 (KRAS G12C) (Homo sapiens, NCI-H358, 72 h) was in the range of 100 to 500 nM; in the series with MIA-Paca2 (KRAS G12C) (Homo sapiens, MIA PaCa-2, 72 h), 100 to 500 nM.
For `C=CC(=O)N1CCN(c2nc(=O)n(-c3c(C)ccnc3C(C)C)c3nc(-c4c(Cl)ccc5ccoc45)c(Cl)cc23)[C@@H](C)C1` [Compound 105, 4-((S)-4-acryloyl-2-methylpiperazin-1-yl)-6-chloro-7-(6-chlorobenzofuran-7-yl)-1-(2-isopropyl-4-methylpyridin-3-yl)pyrido[2,3-d]pyrimidin-2(1H)-one], the IC50 in the series with H358 (KRAS G12C) (Homo sapiens, NCI-H358, 72 h) is less than 10 nM; in the series with MIA-Paca2 (KRAS G12C) (Homo sapiens, MIA PaCa-2, 72 h) it was 10 to 50 nM.
In the series on H358 (KRAS G12C) (Homo sapiens, NCI-H358, 72 h), `C=CC(=O)N1CCN(c2nc(=O)n(-c3c(C)ccnc3C(C)C)c3nc(-c4c(F)ccc5c4OCO5)c(F)cc23)[C@@H](C)C1` [Compound 69, 4-((S)-4-acryloyl-2-methylpiperazin-1-yl)-6-fluoro-7-(5-fluorobenzo[d][1,3]dioxol-4-yl)-1-(2-isopropyl-4-methylpyridin-3-yl)pyrido[2,3-d]pyrimidin-2(1H)-one] returned a half-inhibitory concentration (IC50) of 10 to 50 nM. The compound further displayed a half-inhibitory concentration (IC50) in the series on MIA-Paca2 (KRAS G12C) (Homo sapiens, MIA PaCa-2, 72 h) of 50 to 100 nM. Besides, in series [1], the AUC(0-inf) was 9930 ng·h/mL; the Cmax (in general, the maximum level reached in the sampled fluid or tissue) turned out to be 4390 ng/mL; the Tmax worked out at 49.8 min; the half-life was 323 min. In addition, the AUC(0-t) in series [1] came out at 9920 ng·h/mL.
In the case of `C=CC(=O)N1CCN(c2nc(=O)n(-c3c(C(C)C)ccnc3C(C)C)c3nc(-c4c(F)ccc5ccoc45)c(F)cc23)[C@@H](C)C1` [Compound 121, 4-((S)-4-acryloyl-2-methylpiperazin-1-yl)-1-(2,4-diisopropylpyridin-3-yl)-6-fluoro-7-(6-fluorobenzofuran-7-yl)pyrido[2,3-d]pyrimidin-2(1H)-one], the concentration for half-maximal inhibition (IC50) was in the range of 10 to 50 nM in the series with H358 (KRAS G12C) (Homo sapiens, NCI-H358, 72 h) and 10 to 50 nM in the series with MIA-Paca2 (KRAS G12C) (Homo sapiens, MIA PaCa-2, 72 h).
Compound `C=CC(=O)N1CCN(c2nc(=O)n(-c3c(C)ccnc3C(C)C)c3nc(-c4c(F)ccc5ccoc45)c(Cl)cc23)C[C@@H]1CC#N` (atropisomer, axis not shown; (M)) [Compound 101-1, 2-((2S)-1-acryloyl-4-(6-chloro-7-(6-fluorobenzofuran-7-yl)-1(M)-(2-isopropyl-4-methylpyridin-3-yl)-2-oxo-1,2-dihydropyrido[2,3-d]pyrimidin-4-yl)piperazin-2-yl)acetonitrile] yielded an IC50 in the series with H358 (KRAS G12C) (Homo sapiens, NCI-H358, 72 h) of 10 to 50 nM.
Take `C=CC(=O)N1CCN(c2nc(=O)n(-c3c(C)ccnc3C(C)C)c3nc(-c4c(F)ccc5c4OCCO5)c(F)cc23)[C@@H](C)C1` [Compound 72, 4-((S)-4-acryloyl-2-methylpiperazin-1-yl)-6-fluoro-7-(6-fluoro-2,3-dihydrobenzo[b][1,4]dioxin-5-yl)-1-(2-isopropyl-4-methylpyridin-3-yl)pyrido[2,3-d]pyrimidin-2(1H)-one]: the concentration for half-maximal inhibition (IC50) in the series with H358 (KRAS G12C) (Homo sapiens, NCI-H358, 72 h) was in the range of 10 to 50 nM; in the series on MIA-Paca2 (KRAS G12C) (Homo sapiens, MIA PaCa-2, 72 h), 10 to 50 nM.
